This is an account of results in BindingDB's records for doi:10.1016/j.bmcl.2011.09.060 (Second Military Medical University, 2011).

The assay has as its target Acrosin (Homo sapiens, UniProt P10323). Briefly: Inhibition of acrosin activity in human spermatozoa using N-alpha-benzoyl-DL-arginine para-nitroanilide-HCI as a substrate after 3 hrs by spectrophotometric analysis.

Sequence of Acrosin (P10323 20-42 limits assumed): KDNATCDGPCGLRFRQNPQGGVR
Sequence of Acrosin (P10323 43-343 limits assumed): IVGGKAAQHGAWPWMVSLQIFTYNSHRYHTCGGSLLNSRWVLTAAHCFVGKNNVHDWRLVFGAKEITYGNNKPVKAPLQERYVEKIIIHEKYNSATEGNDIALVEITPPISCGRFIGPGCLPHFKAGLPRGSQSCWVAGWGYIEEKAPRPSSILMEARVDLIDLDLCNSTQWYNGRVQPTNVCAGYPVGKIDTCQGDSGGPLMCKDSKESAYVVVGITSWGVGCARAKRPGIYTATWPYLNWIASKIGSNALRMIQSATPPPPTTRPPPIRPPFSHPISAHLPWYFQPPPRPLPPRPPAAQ

In the case of `COC(=O)C1CCN(CC(=O)Nc2ccc(S(=O)(=O)NC(=N)N)cc2)CC1`, the IC50 is 9.3 mM. The figure for `Cc1ccccc1OCC(=O)Nc1ccc(S(=O)(=O)NC(=N)N)cc1` is 9.3 mM.

Compound `CCOc1ccc(C(=O)Nc2ccc(S(=O)(=O)NC(=N)N)cc2)cc1` came in with an IC50 of 0.13 mM. In turn, `NC(N)=NS(=O)(=O)c1ccc(NC(=O)c2cc([N+](=O)[O-])cc([N+](=O)[O-])c2)cc1` showed an IC50 of 2.5 mM.

`CCCCC(=O)Nc1ccc(S(=O)(=O)NC(=N)N)cc1`: the IC50 was found to be 1.58 mM. The figure for `Cc1ccc(C(=O)Nc2ccc(S(=O)(=O)NC(=N)N)cc2)cc1` is 2.06 mM; for `Cc1cccc(OCC(=O)Nc2ccc(S(=O)(=O)N=C(N)N)cc2)c1` it is 8.92 mM. Compound `CC(C)CCOC(=O)C1CCN(CC(=O)Nc2ccc(S(=O)(=O)NC(=N)N)cc2)CC1` returned an IC50 of 2.51 mM. Consider `COC(=O)c1ccc(OC(=O)c2ccc(NC(=N)N)cc2)cc1`, for which inhibition was half-maximal at 0.027 mM (IC50). `CCCOC(=O)C1CCN(CC(=O)Nc2ccc(S(=O)(=O)N=C(N)N)cc2)CC1` had an IC50 of 3.31 mM. With `CCCCOC(=O)C1CCN(CC(=O)Nc2ccc(S(=O)(=O)NC(=N)N)cc2)CC1`, the IC50 was found to be 9.5 mM. The figure for `Cc1ccc(OCC(=O)Nc2ccc(S(=O)(=O)N=C(N)N)cc2)cc1` is 8.98 mM; for `CC1CCCCN1CC(=O)Nc1ccc(S(=O)(=O)N=C(N)N)cc1` (stereo unspecified) it is 9.9 mM. In turn, `N=C(N)NS(=O)(=O)c1ccc(NC(=O)c2ccccc2Cl)cc1` returned an IC50 of 6.3 mM. Consider `N=C(N)NS(=O)(=O)c1ccc(NC(=O)COc2ccccc2)cc1`, for which the IC50 came to 2.3 mM. As for `N=C(N)NS(=O)(=O)c1ccc(NC(=O)c2cccc(C(F)(F)F)c2)cc1`, the IC50 amounted to 7.05 mM. Take `N=C(N)NS(=O)(=O)c1ccc(NC(=O)c2ccccc2Br)cc1`: the IC50 stood at 7.63 mM. For `N=C(N)NS(=O)(=O)c1ccc(NC(=O)c2ccc(F)cc2)cc1`, the IC50 turned out to be 7.11 mM. For `N=C(N)NS(=O)(=O)c1ccc(NC(=O)COc2ccc([N+](=O)[O-])cc2)cc1`, the IC50 was determined as 4.2 mM. As for `CCc1ccc(C(=O)Nc2ccc(S(=O)(=O)N=C(N)N)cc2)cc1`, the IC50 came to 0.21 mM. `NC(N)=NS(=O)(=O)c1ccc(NC(=O)c2ccc(Cl)c(Cl)c2)cc1` displayed an IC50 of 3.8 mM.

Regarding `N=C(N)NS(=O)(=O)c1ccc(NC(=O)COc2ccc(Cl)cc2)cc1`, half-maximal inhibition (IC50) was put at 9.35 mM. As to `NC(N)=NS(=O)(=O)c1ccc(NC(=O)c2c(Cl)cccc2Cl)cc1`, 5.96 mM corresponded to half-maximal inhibition (IC50). On to `CCCC(=O)Nc1ccc(S(=O)(=O)NC(=N)N)cc1`, for which the IC50 is 9.58 mM.

In turn, `N=C(N)NS(=O)(=O)c1ccc(NC(=O)c2c(F)cccc2F)cc1` showed an IC50 of 7.18 mM. With `N=C(N)NS(=O)(=O)c1ccc(NC(=O)c2cccc(Cl)c2)cc1` the figure was 7 mM; with `CCC(=O)Nc1ccc(S(=O)(=O)N=C(N)N)cc1`, 9 mM; with `CC(C)OC(=O)C1CCN(CC(=O)Nc2ccc(S(=O)(=O)NC(=N)N)cc2)CC1`, 2.35 mM. On to `CCOC(=O)C1CCN(CC(=O)Nc2ccc(S(=O)(=O)N=C(N)N)cc2)CC1`, for which half-maximal inhibition (IC50) required 2.99 mM. The figure for `N=C(N)NS(=O)(=O)c1ccc(NC(=O)c2ccc(Cl)cc2Cl)cc1` is 5.63 mM; for `Cc1cc(C)c(C(=O)Nc2ccc(S(=O)(=O)NC(=N)N)cc2)c(C)c1` it is 2.45 mM; for `CC1CCN(CC(=O)Nc2ccc(S(=O)(=O)NC(=N)N)cc2)CC1` it is 4.98 mM.

On to `N=C(N)NS(=O)(=O)c1ccc(NC(=O)c2ccc(CCl)cc2)cc1`, for which the IC50 was 3.84 mM.

`COc1ccc(C(=O)Nc2ccc(S(=O)(=O)NC(=N)N)cc2)cc1` came in with an IC50 of 2.21 mM.

`COc1ccc(OCC(=O)Nc2ccc(S(=O)(=O)N=C(N)N)cc2)cc1` registered an IC50 of 9.84 mM. With `NC(N)=NS(=O)(=O)c1ccc(NC(=O)CN2CCCCC2)cc1`, 7.41 mM corresponded to half-maximal inhibition (IC50).
